Counter-ions that a name gives are not always drawn. A value given as a limit tells only on which side of the number the result lay.

Sequence of Genome polyprotein (P06935 1371-1501 limits assumed): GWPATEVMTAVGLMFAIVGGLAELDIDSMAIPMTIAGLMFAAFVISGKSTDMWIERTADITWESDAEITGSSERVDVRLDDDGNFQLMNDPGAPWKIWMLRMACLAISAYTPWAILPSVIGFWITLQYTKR
Sequence of Genome polyprotein (P06935 1502-2120 limits assumed): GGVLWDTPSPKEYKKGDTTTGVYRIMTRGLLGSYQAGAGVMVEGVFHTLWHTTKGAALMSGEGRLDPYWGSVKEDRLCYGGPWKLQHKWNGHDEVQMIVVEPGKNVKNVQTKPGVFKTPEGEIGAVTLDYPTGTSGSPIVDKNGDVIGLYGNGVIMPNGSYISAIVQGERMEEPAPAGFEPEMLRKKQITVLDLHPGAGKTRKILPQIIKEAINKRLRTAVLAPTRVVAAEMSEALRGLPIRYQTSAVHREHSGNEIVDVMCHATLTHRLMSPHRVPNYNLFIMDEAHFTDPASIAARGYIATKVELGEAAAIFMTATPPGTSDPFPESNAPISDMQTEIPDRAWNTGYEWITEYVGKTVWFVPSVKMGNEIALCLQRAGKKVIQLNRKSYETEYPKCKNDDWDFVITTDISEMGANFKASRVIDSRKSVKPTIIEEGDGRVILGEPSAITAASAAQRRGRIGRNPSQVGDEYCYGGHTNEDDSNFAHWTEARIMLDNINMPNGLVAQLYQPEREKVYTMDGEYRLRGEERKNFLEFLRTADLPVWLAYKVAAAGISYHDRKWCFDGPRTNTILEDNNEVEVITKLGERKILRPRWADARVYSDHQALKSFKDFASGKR

This test has as its target Genome polyprotein (West Nile virus, UniProt P06935). As to the kind of experiment: inhibitors of WNV NS2B-NS3 protease, dose response, biochemical, confirmation (AID 653).
For `Cc1ccc(Cl)cc1NC(=O)c1ocnc1C` [MLS000092879], the 50% inhibitory concentration (IC50) is more than 50 µM.

In the case of `COc1ccc(N2CCN(C(CNC(=O)Oc3ccccc3)c3cccnc3)CC2)cc1` (stereo not drawn) [MLS000094397], the IC50 was more than 50 µM.

`CC(C)CCN1CC(C(=O)NCc2ccc(F)cc2)CC1=O` (stereo not drawn) [MLS000096189] gave an IC50 of more than 50 µM.

Regarding `COc1ccc(C(=O)c2oc3ccc(Br)cc3c2NC(C)=O)cc1` [MLS000115316], the IC50 is more than 50 µM.

`Cc1ccc(NC(=O)C2C3CC4OC(=O)C2C4C3)cc1Cl` (stereo not drawn) [N-(3-chloro-4-methylphenyl)-5-oxo-4-oxatricyclo[4.2.1.0~3,7~]nonane-9-carboxamide]: the IC50 was more than 50 µM.

For `CCN1CCN(C(=O)N[C@@H](C(=O)N[C@@H]2C(=O)N3[C@@H]2SC(C)(C)[C@@H]3C(=O)O)c2ccccc2)C(=O)C1=O` [PIPERACILLIN SODIUM SALT], the IC50 is more than 50 µM.

Consider `O=C(OC1CCCCC1)c1ccc2c(c1)C1C=CCC1C(C(=O)O)N2` (stereo not drawn) [SMR000019385], for which the IC50 is more than 50 µM.

Consider `Nc1cc(OC(=O)c2cccs2)nn1S(=O)(=O)c1ccccc1` [SMR000021562], for which half-maximal inhibition (IC50) was put at 2.38 µM.

The compound `OCCNC1=NCCN1` [SMR000038385] returned an IC50 of more than 50 µM.

As for `NC(=O)NC1CCCc2c1[nH]c1ccc(Cl)cc21` (stereo not drawn) [SMR000091683], the IC50 is more than 50 µM.

`Cc1cc(OC(=O)c2ccccc2)n(CCC#N)n1` [[2-(2-cyanoethyl)-5-methyl-pyrazol-3-yl] benzoate] had an IC50 of 1.35 µM.

`Nc1ncnc2c1ncn2[C@@H]1O[C@H](CO)[C@@H](O)[C@H]1O` [[U-14C]adenosine] returned an IC50 of more than 50 µM.

Compound `COC(=O)CSC1=NC2=C(C(=O)CCC2)C(c2ccc(C)cc2)C1C#N` (stereo not drawn) [methyl 2-[[3-cyano-4-(4-methylphenyl)-5-oxo-4,6,7,8-tetrahydro-1H-quinolin-2-yl]sulfanyl]acetate] came in with an IC50 of more than 50 µM.

Usually IC50 stands for the concentration that inhibits the measured activity by half.
